Data reported in US20230048132A1, “CYCLIN-DEPENDENT KINASE INHIBITORS” (SPV THERAPEUTICS INC., priority 2018, published 2023).
Where two headings read alike, the source gives them in different places.

How the values were obtained:
Test in all cases: CDK inhibition assay (microfluidic LabChip, IC50 format)
CDK2-CYCLINA = molecular target: T1, CDK2-CYCLINA (Homo sapiens, UniProt P24941); assay type: biochemical; conditions: read-out: CDK2 CyclinA IC50
T1 construct: purchased Millipore

CDK7 CyclinH = CDK7 CyclinH (Homo sapiens, UniProt P50613); assay type: biochemical
CDK1/B = CDK1/B (Homo sapiens, UniProt P06493); assay type: biochemical
CDK9-CYCLINT1 = molecular target: T2, CDK9-CYCLINT1 (Homo sapiens, UniProt P50750); assay type: biochemical; conditions: read-out: CDK9 CyclinT1 IC50
T2 construct: purchased Carna

CDK4-CYCLIND1 = CDK4-CYCLIND1 (Homo sapiens, UniProt P11802); conditions: a second value in parentheses for some compounds
Procedure: Inhibition assays were performed using microfluidic LabChip 300 Drug Discovery System from Caliper Life Sciences. […] The assay has a total volume of 10 μL consisting of 5 μL of enzyme and buffer and 5 μL of substrate and buffer. The test compounds were diluted in 100% dimethylsulfoxide (DMSO) using 3-fold dilution steps. […] Compounds were tested in a single well for each dilution and the final concentration of DMSO was maintained at 1%.
The assay buffer contained 100 mM HEPES, pH 7.5, 0.01% Triton X-100, 0.1% bovine serum albumin (BSA), 5 mM MgCl2; 1 mM dithiothreitol (DTT), 10 μM sodium orthovanadate, and 10 μM β-glycerophosphate.
The assay was conducted by adding 5 μL of enzyme, adenosine triphosphate (ATP) and buffer to an assay plate. A 100 nL aliquot of the diluted compounds were added to the plate. The assay was initiated by the addition of 5 μL of phosphoenolpyruvate substrate (PEP) in buffer. […] The reaction was terminated by the addition of EDTA. The plates were analyzed using a Caliper LabChip 3000.
Additional inhibition assays were performed as described above.
The assays were conducted as described above for the racemates.

CDK6-CYCLIND3 = molecular target: T3, CDK6-CYCLIND3 (Homo sapiens, UniProt Q00534); assay type: biochemical; conditions: Table 4a; read-out: CDK6 CyclinD3 IC50
T3 construct: purchased Carna

[1] = CDK4 CyclinD1 IC50, Table 4b, lower part

T3 sequence (Q00534 whole entry): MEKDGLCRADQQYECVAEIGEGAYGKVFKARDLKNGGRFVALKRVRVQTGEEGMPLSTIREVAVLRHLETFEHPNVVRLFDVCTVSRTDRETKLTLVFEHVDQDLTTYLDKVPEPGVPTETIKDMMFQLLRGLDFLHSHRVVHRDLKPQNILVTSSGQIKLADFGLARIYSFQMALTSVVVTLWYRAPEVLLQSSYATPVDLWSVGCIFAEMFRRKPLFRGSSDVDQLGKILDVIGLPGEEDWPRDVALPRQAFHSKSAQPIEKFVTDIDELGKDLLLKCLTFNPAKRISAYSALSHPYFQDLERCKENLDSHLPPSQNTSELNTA
T3 sequence (P30281 whole entry partner): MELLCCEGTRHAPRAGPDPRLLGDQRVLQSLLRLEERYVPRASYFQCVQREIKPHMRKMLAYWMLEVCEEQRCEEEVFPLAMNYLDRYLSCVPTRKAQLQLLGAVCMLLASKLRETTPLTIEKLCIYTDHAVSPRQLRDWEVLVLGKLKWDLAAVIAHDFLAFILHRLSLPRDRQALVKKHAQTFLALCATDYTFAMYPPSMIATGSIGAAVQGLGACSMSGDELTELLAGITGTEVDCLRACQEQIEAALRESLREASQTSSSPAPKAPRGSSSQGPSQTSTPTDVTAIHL
Chain of CDK1/B (P06493 whole entry, species assumed): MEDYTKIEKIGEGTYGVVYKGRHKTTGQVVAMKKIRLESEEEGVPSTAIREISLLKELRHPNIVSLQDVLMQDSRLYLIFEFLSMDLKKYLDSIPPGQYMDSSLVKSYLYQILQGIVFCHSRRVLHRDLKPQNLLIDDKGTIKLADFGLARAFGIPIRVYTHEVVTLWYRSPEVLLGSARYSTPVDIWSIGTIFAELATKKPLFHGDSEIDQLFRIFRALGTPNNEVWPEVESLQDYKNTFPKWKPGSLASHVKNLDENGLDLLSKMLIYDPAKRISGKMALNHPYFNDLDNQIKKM
Chain of CDK1/B (P14635 whole entry partner, species assumed): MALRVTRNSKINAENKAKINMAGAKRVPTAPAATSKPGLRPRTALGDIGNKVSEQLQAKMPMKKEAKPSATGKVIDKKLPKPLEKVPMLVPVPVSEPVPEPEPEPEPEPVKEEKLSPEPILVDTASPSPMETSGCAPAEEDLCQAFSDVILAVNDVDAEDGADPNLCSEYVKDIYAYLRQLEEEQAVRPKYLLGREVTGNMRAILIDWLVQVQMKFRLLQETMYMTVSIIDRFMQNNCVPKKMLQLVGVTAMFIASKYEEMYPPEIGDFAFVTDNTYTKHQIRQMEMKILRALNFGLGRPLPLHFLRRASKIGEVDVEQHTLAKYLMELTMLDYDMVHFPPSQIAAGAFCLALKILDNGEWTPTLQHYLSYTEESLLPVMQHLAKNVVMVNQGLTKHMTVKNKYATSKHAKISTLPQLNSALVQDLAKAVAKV
Chain of CDK7 CyclinH (P50613 whole entry): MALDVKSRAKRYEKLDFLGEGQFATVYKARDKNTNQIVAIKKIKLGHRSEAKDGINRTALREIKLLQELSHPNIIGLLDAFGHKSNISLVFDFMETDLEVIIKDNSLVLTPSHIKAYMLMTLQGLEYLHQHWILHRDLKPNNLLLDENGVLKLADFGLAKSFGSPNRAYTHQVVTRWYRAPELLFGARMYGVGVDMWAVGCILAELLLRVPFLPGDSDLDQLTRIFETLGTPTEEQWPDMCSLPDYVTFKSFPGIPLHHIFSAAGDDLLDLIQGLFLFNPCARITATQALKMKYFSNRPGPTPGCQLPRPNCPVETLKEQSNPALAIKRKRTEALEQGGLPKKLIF
Chain of CDK7 CyclinH (P51946 whole entry partner): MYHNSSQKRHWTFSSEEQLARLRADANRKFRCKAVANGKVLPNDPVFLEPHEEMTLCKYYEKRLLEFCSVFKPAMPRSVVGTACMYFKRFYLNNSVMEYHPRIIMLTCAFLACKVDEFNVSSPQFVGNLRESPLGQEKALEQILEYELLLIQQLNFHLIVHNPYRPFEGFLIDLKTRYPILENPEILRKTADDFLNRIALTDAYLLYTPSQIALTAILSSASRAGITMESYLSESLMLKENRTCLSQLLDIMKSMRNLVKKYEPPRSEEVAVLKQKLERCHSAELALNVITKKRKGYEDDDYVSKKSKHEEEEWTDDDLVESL
Chain of CDK7 CyclinH (P51948 whole entry partner): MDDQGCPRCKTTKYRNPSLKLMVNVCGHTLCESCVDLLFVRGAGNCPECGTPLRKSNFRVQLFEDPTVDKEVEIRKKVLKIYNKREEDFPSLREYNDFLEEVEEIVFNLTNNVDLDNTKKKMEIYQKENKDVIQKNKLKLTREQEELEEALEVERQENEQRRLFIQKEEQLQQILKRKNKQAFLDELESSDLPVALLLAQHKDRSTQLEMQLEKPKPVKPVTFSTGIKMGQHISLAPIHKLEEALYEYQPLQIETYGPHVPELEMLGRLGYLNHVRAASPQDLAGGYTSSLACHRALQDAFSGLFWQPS
T2 sequence (P50750 whole entry): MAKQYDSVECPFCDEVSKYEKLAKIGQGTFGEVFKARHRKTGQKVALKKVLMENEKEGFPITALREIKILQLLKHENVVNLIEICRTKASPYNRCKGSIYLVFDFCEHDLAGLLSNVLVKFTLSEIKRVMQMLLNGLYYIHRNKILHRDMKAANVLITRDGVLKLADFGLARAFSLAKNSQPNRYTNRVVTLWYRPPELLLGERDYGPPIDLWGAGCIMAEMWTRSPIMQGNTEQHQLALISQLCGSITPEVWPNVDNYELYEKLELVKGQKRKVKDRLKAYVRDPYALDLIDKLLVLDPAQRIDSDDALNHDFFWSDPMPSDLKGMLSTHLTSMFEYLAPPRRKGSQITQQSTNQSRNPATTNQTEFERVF
T2 sequence (O60563 whole entry partner): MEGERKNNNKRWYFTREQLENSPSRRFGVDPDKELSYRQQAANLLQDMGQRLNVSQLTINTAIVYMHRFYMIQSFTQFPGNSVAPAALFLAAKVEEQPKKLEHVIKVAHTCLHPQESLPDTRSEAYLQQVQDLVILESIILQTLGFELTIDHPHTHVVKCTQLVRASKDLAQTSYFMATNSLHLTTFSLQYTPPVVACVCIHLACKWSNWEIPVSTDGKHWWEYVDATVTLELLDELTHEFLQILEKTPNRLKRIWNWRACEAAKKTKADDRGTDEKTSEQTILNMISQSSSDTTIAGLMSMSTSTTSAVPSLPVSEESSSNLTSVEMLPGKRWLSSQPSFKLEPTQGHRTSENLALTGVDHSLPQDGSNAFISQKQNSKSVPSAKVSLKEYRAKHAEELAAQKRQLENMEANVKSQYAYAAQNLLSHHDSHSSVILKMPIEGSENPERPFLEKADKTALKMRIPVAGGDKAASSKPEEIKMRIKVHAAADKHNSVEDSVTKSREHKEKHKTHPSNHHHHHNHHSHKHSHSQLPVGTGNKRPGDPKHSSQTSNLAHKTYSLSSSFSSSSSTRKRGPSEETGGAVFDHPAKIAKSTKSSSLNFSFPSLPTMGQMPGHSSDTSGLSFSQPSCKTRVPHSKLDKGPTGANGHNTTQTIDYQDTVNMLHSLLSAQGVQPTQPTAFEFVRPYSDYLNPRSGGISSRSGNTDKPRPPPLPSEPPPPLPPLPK
Chain of CDK4-CYCLIND1 (P11802 whole entry): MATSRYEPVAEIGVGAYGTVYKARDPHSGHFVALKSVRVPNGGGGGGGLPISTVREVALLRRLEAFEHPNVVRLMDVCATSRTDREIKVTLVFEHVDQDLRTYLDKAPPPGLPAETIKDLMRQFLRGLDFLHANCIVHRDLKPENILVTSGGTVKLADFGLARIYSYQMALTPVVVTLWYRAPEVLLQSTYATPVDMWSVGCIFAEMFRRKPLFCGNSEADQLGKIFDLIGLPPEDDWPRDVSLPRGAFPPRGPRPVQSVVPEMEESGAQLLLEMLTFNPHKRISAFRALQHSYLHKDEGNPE
Chain of CDK4-CYCLIND1 (P24385 whole entry partner): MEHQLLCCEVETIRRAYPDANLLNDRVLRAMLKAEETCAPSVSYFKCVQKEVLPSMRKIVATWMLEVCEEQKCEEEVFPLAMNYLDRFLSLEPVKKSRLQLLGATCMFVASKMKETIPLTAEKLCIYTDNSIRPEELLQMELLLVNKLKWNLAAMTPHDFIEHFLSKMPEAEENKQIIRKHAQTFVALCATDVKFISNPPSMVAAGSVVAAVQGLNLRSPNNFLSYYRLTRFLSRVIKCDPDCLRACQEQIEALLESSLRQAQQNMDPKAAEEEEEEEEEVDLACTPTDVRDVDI

IC50 (CDK2-CYCLINA; Table 4b, lower part) [nM]	IC50 (CDK7 CyclinH; Table 4b, lower part) [nM]	IC50 (CDK1/B; Table 4b, lower part) [nM]	IC50 (CDK9-CYCLINT1; Table 4b, lower part) [nM]	IC50 (CDK4-CYCLIND1; [1]) [nM]	IC50 (CDK2-CYCLINA; Table 4a) [nM]	IC50 (CDK4-CYCLIND1; CDK4 CyclinD1 IC50, Table 4a) [nM]	IC50 (CDK7 CyclinH; Table 4a) [nM]	IC50 (CDK1/B; Table 4a) [nM]	IC50 (CDK9-CYCLINT1; Table 4a) [nM]	IC50 (CDK6-CYCLIND3) [nM]	Structure (SMILES)
242	> 10000	1060	12.3								CC(C)c1ccc(Nc2ncc3c(n2)N(C2CCCC2)C(=O)[C@]2(CCNC2=O)C3)cc1F [Example D130, (S)-8-cyclopentyl-2-((3-fluoro-4-isopropylphenyl)amino)-5,8-dihydro-7H-spiro[pyrido[2,3-d]pyrimidine-6,3′-pyrrolidine]-2′,7-dione]
126	642	464	< 3.2	< 3.2							CC(C)N1CC2(CN(c3ccc(Nc4ncc5c(n4)N(C4CCCC4)C(=O)[C@]4(CCNC4=O)C5)cc3)C2)C1 [Example D102, (S)-8-cyclopentyl-2-((4-(6-isopropyl-2,6-diazaspiro[3.3]heptan-2-yl)phenyl)amino)-5,8-dihydro-7H-spiro[pyrido[2,3-d]pyrimidine-6,3′-pyrrolidine]-2′,7-dione]
< 3.2	215	4.46	3.51	< 3.2							CS(=O)(=O)N1CCC(Nc2ncc3c(n2)N(C2CCCC2)C(=O)[C@]2(CCNC2=O)C3)CC1 [Example D117, (S)-8-cyclopentyl-2-((1-(methylsulfonyl)piperidin-4-yl)amino)-5,8-dihydro-7H-spiro[pyrido[2,3-d]pyrimidine-6,3′-pyrrolidine]-2′,7-dione]
3420	3770	8670	72.6	39.7							CC1CN(c2ccc(Nc3ncc4c(n3)N(C35CC(C3)C5)C(=O)[C@]3(CCNC3=O)C4)cc2)CC(C)N1 (stereo partly drawn) [Example D200, (6S)-8-(bicyclo[1.1.1]pentan-1-yl)-2-((4-(3,5-dimethylpiperazin-1-yl)phenyl)amino)-5,8-dihydro-7H-spiro[pyrido[2,3-d]pyrimidine-6,3′-pyrrolidine]-2′,7-dione]
					> 10000	4.58	> 10000	> 10000	204		CN(C)CCOc1ccc(Nc2ncc3c(n2)N(C2CCCC2)C(=O)[C@]2(CCNC2=O)C3)nc1 [Example D138, (S)-8-cyclopentyl-2-((5-(2-(dimethylamino)ethoxy)pyridin-2-yl)amino)-5,8-dihydro-7H-spiro[pyrido[2,3-d]pyrimidine-6,3′-pyrrolidine]-2′,7-dione]
1140	557	1160	20.5								CC(C)N1CCC(Nc2ncc3c(n2)N(C2CCCC2)C(=O)[C@]2(CCNC2=O)C3)CC1 [Example D125, (S)-8-cyclopentyl-2-((1-isopropylpiperidin-4-yl)amino)-5,8-dihydro-7H-spiro[pyrido[2,3-d]pyrimidine-6,3′-pyrrolidine]-2′,7-dione]
					> 10000	1960	> 10000	> 10000	> 10000		CN1CCN(c2ccc(Nc3ncc4c(n3)N(C3CCCC3)C(=O)N([C@H]3CCNC3)C4)cc2)CC1 [Example D71, (S)-1-cyclopentyl-7-((4-(4-methylpiperazin-1-yl)phenyl)amino)-3-(pyrrolidin-3-yl)-3,4-dihydropyrimido[4,5-d]pyrimidin-2(1H)-one]
803	> 10000	2200	25.4	22.7							C[C@]1(O)CC[C@@H](Nc2ncc3c(n2)N(C2CCCC2)C(=O)[C@]2(CCNC2=O)C3)CC1 [Example D126, (S)-8-cyclopentyl-2-(((1s,4R)-4-hydroxy-4-methylcyclohexyl)amino)-5,8-dihydro-7H-spiro[pyrido[2,3-d]pyrimidine-6,3′-pyrrolidine]-2′,7-dione]
31.3	3450	232	< 3.2	< 3.2							O=C1NCC[C@@]12Cc1cnc(Nc3ccc(OCCO)cc3)nc1N(C1CCCC1)C2=O [Example D116, (S)-8-cyclopentyl-2-((4-(2-hydroxyethoxy)phenyl)amino)-5,8-dihydro-7H-spiro[pyrido[2,3-d]pyrimidine-6,3′-pyrrolidine]-2′,7-dione]
< 3.2	1670	37.9	< 3.2	< 3.2							CS(=O)(=O)c1ccc(Nc2ncc3c(n2)N(C2CCCC2)C(=O)[C@]2(CCNC2=O)C3)cc1 [Example D114, (S)-8-cyclopentyl-2-((4-(methylsulfonyl)phenyl)amino)-5,8-dihydro-7H-spiro[pyrido[2,3-d]pyrimidine-6,3′-pyrrolidine]-2′,7-dione]
36.8	162	167	< 3.2	< 3.2							CN1CC2(C1)CN(c1ccc(Nc3ncc4c(n3)N(C3CCCC3)C(=O)[C@]3(CCNC3=O)C4)cc1F)C2 [Example D101, (S)-8-cyclopentyl-2-((3-fluoro-4-(6-methyl-2,6-diazaspiro[3.3]heptan-2-yl)phenyl)amino)-5,8-dihydro-7H-spiro[pyrido[2,3-d]pyrimidine-6,3′-pyrrolidine]-2′,7-dione]
					723	33.3	1500	1100	16.1		O=C1NCC[C@@]12Cc1cnc(N[C@H]3CC[C@H](NC4CCOCC4)CC3)nc1N(C13CC(C1)C3)C2=O [Example D93, (S)-8-(bicyclo[1.1.1]pentan-1-yl)-2-(((1r,4S)-4-((tetrahydro-2H-pyran-4-yl)amino)cyclohexyl)amino)-5,8-dihydro-7H-spiro[pyrido[2,3-d]pyrimidine-6,3′-pyrrolidine]-2′,7-dione]
56.6	111	222	< 3.2	< 3.2							O=C1NCC[C@@]12Cc1cnc(Nc3ccc(N4CCN(CCO)CC4)c(F)c3)nc1N(C1CCCC1)C2=O [Example D97, (S)-8-cyclopentyl-2-((3-fluoro-4-(4-(2-hydroxyethyl)piperazin-1-yl)phenyl)amino)-5,8-dihydro-7H-spiro[pyrido[2,3-d]pyrimidine-6,3′-pyrrolidine]-2′,7-dione]
135	> 10000	563	9.03								CC(C)c1ccc(Nc2ncc3c(n2)N(C2CCCC2)C(=O)[C@]2(CCNC2=O)C3)cc1 [Example D115, (S)-8-cyclopentyl-2-((4-isopropylphenyl)amino)-5,8-dihydro-7H-spiro[pyrido[2,3-d]pyrimidine-6,3′-pyrrolidine]-2′,7-dione]
					33.5	1.2	157		6.41	3.41	COc1cc(Nc2ncc3c(n2)N(C2CCCC2)C(=O)[C@]2(CCNC2=O)C3)ccc1N1CCN(C)CC1 [Example D160, (S)-8-cyclopentyl-2-((3-methoxy-4-(4-methylpiperazin-1-yl)phenyl)amino)-5,8-dihydro-7H-spiro[pyrido[2,3-d]pyrimidine-6,3′-pyrrolidine]-2′,7-dione]
					8560	42.3	> 100000		390	53.1	CC(C)n1cc(-c2ccc(Nc3ncc4c(n3)N(C3CCCC3)C(=O)[C@]3(CCNC3=O)C4)nc2)cn1 [Example D170, (S)-8-cyclopentyl-2-((5-(1-isopropyl-1H-pyrazol-4-yl)pyridin-2-yl)amino)-5,8-dihydro-7H-spiro[pyrido[2,3-d]pyrimidine-6,3′-pyrrolidine]-2′,7-dione]
					60.9	1.52	505		6.93	3.16	CN(C)[C@H]1CCN(c2ccc(Nc3ncc4c(n3)N(C3CCCC3)C(=O)[C@]3(CCNC3=O)C4)cc2)C1 [Example D174, (S)-8-cyclopentyl-2-((4-((S)-3-(dimethylamino)pyrrolidin-1-yl)phenyl)amino)-5,8-dihydro-7H-spiro[pyrido[2,3-d]pyrimidine-6,3′-pyrrolidine]-2′,7-dione]
					951	73.2	4260		518	188	CN1CCN(c2ccc(Nc3ncc4c(n3)N(C3CCCC3)C(=O)[C@]3(CCNC3=O)C4)c(F)c2)CC1 [Example D147, (S)-8-cyclopentyl-2-((2-fluoro-4-(4-methylpiperazin-1-yl)phenyl)amino)-5,8-dihydro-7H-spiro[pyrido[2,3-d]pyrimidine-6,3′-pyrrolidine]-2′,7-dione]
					1710	1.18	19000		120	1.64	O=C1NCC[C@@]12Cc1cnc(Nc3ccc(N4CCNCC4)cn3)nc1N(C1CCCC1)C2=O [Example D152, (S)-8-cyclopentyl-2-((5-(piperazin-1-yl)pyridin-2-yl)amino)-5,8-dihydro-7H-spiro[pyrido[2,3-d]pyrimidine-6,3′-pyrrolidine]-2′,7-dione]
					110	5.37	682		5.74	11.6	O=C1NCC[C@@]12Cc1cnc(Nc3ccc(N4CC5(CNC5)C4)c(F)c3)nc1N(C1CCCC1)C2=O [Example D173, (S)-8-cyclopentyl-2-((3-fluoro-4-(2,6-diazaspiro[3.3]heptan-2-yl)phenyl)amino)-5,8-dihydro-7H-spiro[pyrido[2,3-d]pyrimidine-6,3′-pyrrolidine]-2′,7-dione]
